What all share (assay type): binding
The target in experiment [1] is T1, FGF-R4 ECD (Homo sapiens, UniProt P22455).
T1 construct: DNA constructs for the extracellular domain (ECD) of human FGF-; HPC4 (C); made in house; host or cells: HEK 293-6E
T1 sequence (P22455 22-369 limits assumed): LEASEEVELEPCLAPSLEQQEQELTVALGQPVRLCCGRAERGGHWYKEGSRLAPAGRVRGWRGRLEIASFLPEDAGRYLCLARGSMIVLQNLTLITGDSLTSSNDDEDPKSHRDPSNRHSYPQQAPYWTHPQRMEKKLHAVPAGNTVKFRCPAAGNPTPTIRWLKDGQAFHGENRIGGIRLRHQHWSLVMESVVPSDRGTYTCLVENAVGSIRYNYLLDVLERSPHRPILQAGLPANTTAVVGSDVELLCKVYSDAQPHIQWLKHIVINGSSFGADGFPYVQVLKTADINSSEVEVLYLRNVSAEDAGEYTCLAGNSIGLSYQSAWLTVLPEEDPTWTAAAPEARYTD
The experiment in a line: single concentration BLI of crude peptides. The following applies: read-out: KD (4). In a few lines: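 BLI, streptavidin sensors loaded with biotinylated receptor ECD. Single-point: ~1 μM crude peptide, PBS pH7.4/0.05% Tween-20/0.01% BSA; association then dissociation in buffer. KD corrected for UPLC-CAD-determined concentration.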

In experiment [2] the target is T2, FGF-R1C ECD (Homo sapiens, UniProt P11362).
T2 sequence (P11362 22-376 limits assumed): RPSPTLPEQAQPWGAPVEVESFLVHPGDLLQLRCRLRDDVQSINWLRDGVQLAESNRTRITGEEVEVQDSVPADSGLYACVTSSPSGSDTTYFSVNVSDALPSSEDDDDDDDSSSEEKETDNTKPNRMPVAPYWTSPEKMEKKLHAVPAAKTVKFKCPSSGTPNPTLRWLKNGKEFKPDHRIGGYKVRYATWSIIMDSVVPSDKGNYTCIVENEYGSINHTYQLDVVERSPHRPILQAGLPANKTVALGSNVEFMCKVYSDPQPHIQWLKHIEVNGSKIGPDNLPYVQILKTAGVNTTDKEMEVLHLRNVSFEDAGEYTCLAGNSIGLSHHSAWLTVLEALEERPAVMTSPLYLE
The experiment in a line: biochemical. On the set-up: DNA constructs for the extracellular domain (ECD) of human FGF-; HPC4 (C); made in house; host or cells: HEK 293-6E. The procedure, abridged: (§1)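 Biotinylated FGF-R ECD on streptavidin biosensors was dipped into ~1 μM crude peptide in PBS pH7.4 with 0.05% Tween-20 and 0.01% BSA for association, then into buffer for dissociation, and followed by BLI. Fitted KD values were adjusted for peptide concentration measured by UPLC-CAD.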

Experiment [3] concerns the target T3, FGF-R3C ECD (Homo sapiens, UniProt P22607).
T3 sequence (P22607 23-375 limits assumed): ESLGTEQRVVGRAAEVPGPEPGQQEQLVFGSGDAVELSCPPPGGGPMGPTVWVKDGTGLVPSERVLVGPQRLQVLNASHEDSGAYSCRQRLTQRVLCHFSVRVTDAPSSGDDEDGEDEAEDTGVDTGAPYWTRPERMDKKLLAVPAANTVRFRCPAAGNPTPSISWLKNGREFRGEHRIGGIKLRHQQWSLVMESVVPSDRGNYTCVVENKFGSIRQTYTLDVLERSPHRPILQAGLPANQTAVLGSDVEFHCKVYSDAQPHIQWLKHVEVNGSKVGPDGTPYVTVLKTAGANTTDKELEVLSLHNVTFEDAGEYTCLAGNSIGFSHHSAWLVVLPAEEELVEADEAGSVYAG
The experiment can be described thus: biochemical. Further details: DNA constructs for the extracellular domain (ECD) of human FGF-; HPC4 (C); made in house; host or cells: HEK 293-6E. In a few lines: as §1

Setting [4] is: crude NNK peptides, single concentration BLI (Table S3).
[5] abbreviates: crude T18 selection 1 (1:1:1) peptides, single concentration BLI (Table S4).

Like-named read-outs stand apart in the source and are kept apart here. Positions of bridges follow the written chain, without caps; N, C: chain ends. Residues, ends and D or L forms follow the SMILES beside them.

What is called Kd is the constant that tells how readily two partners part at equilibrium. In the case of `CSCC[C@H](N)C(=O)N[C@H]1CSSC[C@@H](C(=O)NCC(=O)N[C@@H](CO)C(=O)NCC(=O)N[C@@H](CO)C(=O)N[C@@H](CC(=O)O)C(=O)N[C@@H](Cc2ccc(O)cc2)C(=O)N[C@@H](CCCCN)C(=O)N[C@@H](CC(=O)O)C(=O)N[C@@H](CC(=O)O)C(=O)N[C@@H](CC(=O)O)C(=O)N[C@@H](CC(=O)O)C(=O)N[C@@H](CCCCN)C(N)=O)NC(=O)[C@H](Cc2ccccc2)NC(=O)[C@H](C(C)C)NC(=O)[C@H](Cc2ccccc2)NC(=O)[C@@H]2CCCN2C(=O)[C@H](CC(C)C)NC(=O)[C@H](Cc2c[nH]c3ccccc23)NC(=O)[C@H](CO)NC(=O)[C@H](CC(=O)O)NC(=O)[C@H](Cc2ccccc2)NC(=O)[C@H](C(C)C)NC1=O` (H-MCVFDSWLPFVFCGSGSDYKDDDDK-NH2; disulfide 2-13), the Kd in experiment [1] (setting [4]) was over 10 µM; in experiment [2], over 10 µM; in experiment [3], 1.06 µM.
`CSCC[C@H](NC(C)=O)C(=O)N[C@H]1CSSC[C@@H](C(=O)NCC(=O)N[C@@H](CO)C(=O)NCC(=O)N[C@@H](CO)C(=O)N[C@@H](CCC(=O)O)C(=O)N[C@@H](CCC(=O)O)C(=O)NCC(=O)N[C@@H](CO)C(=O)NCC(=O)N[C@@H](CO)C(=O)N[C@@H](CC(=O)O)C(=O)N[C@@H](Cc2ccc(O)cc2)C(=O)N[C@@H](CCCCN)C(=O)N[C@@H](CC(=O)O)C(=O)N[C@@H](CC(=O)O)C(=O)N[C@@H](CC(=O)O)C(=O)N[C@@H](CC(=O)O)C(=O)N[C@@H](CCCCN)C(N)=O)NC(=O)[C@H](Cc2ccccc2)NC(=O)[C@H](CCCCN)NC(=O)CNC(=O)[C@H](CCCCN)NC(=O)[C@H](Cc2c[nH]c3ccccc23)NC(=O)[C@H](CC(C)C)NC(=O)[C@H](CC(C)C)NC(=O)[C@H](Cc2ccccc2)NC(=O)[C@H](C)NC(=O)[C@H](CCCCN)NC(=O)[C@H](C)NC1=O` (Ac-MCAKAFLLWKGKFCGSGSEEGSGSDYKDDDDK-NH2; disulfide 2-14): the Kd in experiment [1] (setting [5]), in experiment [2] and in experiment [3] was over 10 µM throughout.
`CSCC[C@H](NC(C)=O)C(=O)N[C@H]1CSSC[C@@H](C(=O)NCC(=O)N[C@@H](CO)C(=O)NCC(=O)N[C@@H](CO)C(=O)N[C@@H](CC(=O)O)C(=O)N[C@@H](Cc2ccc(O)cc2)C(=O)N[C@@H](CCCCN)C(=O)N[C@@H](CC(=O)O)C(=O)N[C@@H](CC(=O)O)C(=O)N[C@@H](CC(=O)O)C(=O)N[C@@H](CC(=O)O)C(=O)N[C@@H](CCCCN)C(N)=O)NC(=O)[C@H](Cc2c[nH]c3ccccc23)NC(=O)[C@H](CCC(N)=O)NC(=O)[C@H](CCCCN)NC(=O)[C@H](Cc2c[nH]c3ccccc23)NC(=O)[C@H](CC(C)C)NC(=O)[C@H](CC(C)C)NC(=O)[C@H](Cc2ccccc2)NC(=O)[C@H](CC(C)C)NC(=O)[C@H](CCCCN)NC(=O)[C@H](Cc2ccc(O)cc2)NC1=O` (Ac-MCYKLFLLWKQWCGSGSDYKDDDDK-NH2; disulfide 2-13): the equilibrium dissociation constant (Kd) in experiment [1] (setting [4]), in experiment [2] and in experiment [3] was over 10 µM each time.
Consider `CC[C@H](C)[C@@H]1NC(=O)[C@H](CC(=O)O)NC(=O)[C@H](Cc2ccc(O)cc2)NC(=O)[C@@H](NC(=O)[C@H](CCSC)NC(C)=O)CSSC[C@@H](C(=O)NCC(=O)N[C@@H](CO)C(=O)NCC(=O)N[C@@H](CO)C(=O)N[C@@H](CC(=O)O)C(=O)N[C@@H](Cc2ccc(O)cc2)C(=O)N[C@@H](CCCCN)C(=O)N[C@@H](CC(=O)O)C(=O)N[C@@H](CC(=O)O)C(=O)N[C@@H](CC(=O)O)C(=O)N[C@@H](CC(=O)O)C(=O)N[C@@H](CCCCN)C(N)=O)NC(=O)[C@H](Cc2c[nH]cn2)NC(=O)[C@H](Cc2ccc(O)cc2)NC(=O)[C@H](C(C)C)NC(=O)[C@H]([C@@H](C)O)NC(=O)[C@H]([C@@H](C)CC)NC(=O)[C@H](Cc2ccc(O)cc2)NC(=O)[C@H](CC(=O)O)NC(=O)[C@H](Cc2ccccc2)NC(=O)[C@H](C(C)C)NC1=O` (Ac-MCYDIVFDYITVYHCGSGSDYKDDDDK-NH2; disulfide 2-15), for which the Kd in experiment [1] (setting [5]) was 0.021 µM; in experiment [2] it was over 10 µM; in experiment [3] it was over 10 µM.
With `CC[C@H](C)[C@@H]1NC(=O)[C@H]([C@@H](C)O)NC(=O)[C@H](C(C)C)NC(=O)[C@H](Cc2ccc(O)cc2)NC(=O)[C@H](Cc2c[nH]c3ccccc23)NC(=O)[C@H](CC(=O)O)NC(=O)[C@@H](NC(=O)[C@H](CCSC)NC(C)=O)CSSC[C@@H](C(=O)NCC(=O)N[C@@H](CO)C(=O)NCC(=O)N[C@@H](CO)C(=O)N[C@@H](CC(=O)O)C(=O)N[C@@H](Cc2ccc(O)cc2)C(=O)N[C@@H](CCCCN)C(=O)N[C@@H](CC(=O)O)C(=O)N[C@@H](CC(=O)O)C(=O)N[C@@H](CC(=O)O)C(=O)N[C@@H](CC(=O)O)C(=O)N[C@@H](CCCCN)C(N)=O)NC(=O)[C@H](CCCCN)NC(=O)[C@H](CCCCN)NC(=O)[C@H](CC(C)C)NC(=O)[C@H](C(C)C)NC(=O)[C@H](CCCCN)NC(=O)[C@H](Cc2ccc(O)cc2)NC1=O` (Ac-MCDWYVTIYKVLKKCGSGSDYKDDDDK-NH2; disulfide 2-15), the dissociation constant Kd is 0.008 µM in experiment [1] (setting [5]), over 10 µM in experiment [2] and over 10 µM in experiment [3].
As to `CSCC[C@H](NC(C)=O)C(=O)N[C@H]1CSSC[C@@H](C(=O)NCC(=O)N[C@@H](CO)C(=O)NCC(=O)N[C@@H](CO)C(=O)N[C@@H](CC(=O)O)C(=O)N[C@@H](Cc2ccc(O)cc2)C(=O)N[C@@H](CCCCN)C(=O)N[C@@H](CC(=O)O)C(=O)N[C@@H](CC(=O)O)C(=O)N[C@@H](CC(=O)O)C(=O)N[C@@H](CC(=O)O)C(=O)N[C@@H](CCCCN)C(N)=O)NC(=O)[C@H](Cc2c[nH]cn2)NC(=O)[C@H](Cc2c[nH]c3ccccc23)NC(=O)[C@H](CC(N)=O)NC(=O)[C@H](Cc2ccc(O)cc2)NC(=O)[C@H](Cc2c[nH]cn2)NC(=O)[C@H](Cc2c[nH]cn2)NC(=O)[C@H](CO)NC(=O)[C@H](Cc2ccc(O)cc2)NC(=O)[C@H](CCC(N)=O)NC(=O)[C@H](Cc2c[nH]c3ccccc23)NC(=O)[C@H](C(C)C)NC1=O` (Ac-MCVWQYSHHYNWHCGSGSDYKDDDDK-NH2; disulfide 2-14), the Kd in experiment [1] (setting [5]), in experiment [2] and in experiment [3] was over 10 µM in each case.
For the compound `CC[C@H](C)[C@@H]1NC(=O)[C@H](Cc2c[nH]cn2)NC(=O)[C@H](CCCCN)NC(=O)[C@H](Cc2ccc(O)cc2)NC(=O)[C@@H](NC(=O)[C@H](CCSC)NC(C)=O)CSSC[C@@H](C(=O)NCC(=O)N[C@@H](CO)C(=O)NCC(=O)N[C@@H](CO)C(=O)N[C@@H](CCC(=O)O)C(=O)N[C@@H](CCC(=O)O)C(=O)NCC(=O)N[C@@H](CO)C(=O)NCC(=O)N[C@@H](CO)C(=O)N[C@@H](CC(=O)O)C(=O)N[C@@H](Cc2ccc(O)cc2)C(=O)N[C@@H](CCCCN)C(=O)N[C@@H](CC(=O)O)C(=O)N[C@@H](CC(=O)O)C(=O)N[C@@H](CC(=O)O)C(=O)N[C@@H](CC(=O)O)C(=O)N[C@@H](CCCCN)C(N)=O)NC(=O)[C@H](CC(C)C)NC(=O)[C@H](CCCCN)NC(=O)[C@H](CCC(N)=O)NC(=O)[C@H]([C@@H](C)CC)NC(=O)[C@H](CCCCN)NC(=O)[C@H](Cc2ccc(O)cc2)NC(=O)[C@H](Cc2c[nH]c3ccccc23)NC(=O)[C@H](CC(C)C)NC1=O` (Ac-MCYKHILWYKIQKLCGSGSEEGSGSDYKDDDDK-NH2; disulfide 2-15), the figures for the dissociation constant (Kd) in experiment [1] (setting [5]), in experiment [2] and in experiment [3] were 0.001 µM, 0.033 µM and over 10 µM, respectively.

The values above are taken from paper PMC10763615, “Identification and engineering of potent cyclic peptides with selective or promiscuous binding through biochemical profiling and bioinformatic data analysis” (RSC Chemical Biology, 2023).
